Reference: patent US9084758B2, “Antiviral compositions comprising ethanol extract of Tetracera scandens and use thereof” (The Catholic University of Korea Industry-Academic …, priority 2012, dated 2015)

Columns and labels:
[1] = target: HIV reverse transcriptase (Human immunodeficiency virus type 1 group M subtype B, UniProt P04585); assay: Inhibition of reverse transcriptase activity, Enzchek Reverse Transcriptase assay kit; format: biochemical; details: positive controls, FIG. 3
[2] = tested on: human immunodeficiency virus (HIV); assay: Antiviral activity in HIV-infected (Nef substituted with EGFP) MT-4 cells: GFP fluorescence, HIV-1 p24 Antigen Capture Assay; format: cell-based; details: 1 nM, 3 days
Experimental: Thereafter, the cultured cells were centrifuged at 6,000 rpm for 3 minutes to obtain a cell pallet. Then, fluorescence intensity of a green fluorescence protein (GFP) secreted from the obtained cells was measured, a level of viral infection was confirmed using an HIV-1 p24 Antigen Capture Assay kit (Advanced BioScience Laboratories), and cell viability was determined using an MTT assay. 0.5% DMSO and 1 nM 3′-azido-3′-deoxy-thyminine (AZT) were used as the negative and positive controls, respectively.

Compound | inhibition of reverse transcriptase activities (in words) [1] | antiviral activity [2]
Cc1cn([C@H]2C[C@H](N=[N+]=[N-])[C@@H](CO)O2)c(=O)[nH]c1=O [AZT, 3′-azido-3′-deoxy-thyminine] | not inhibited | 49.8%
Cc1cn([C@H]2C[C@H](N=[N+]=[N-])[C@@H](CO[P@](=O)(O)O[P@](=O)(O)OP(=O)(O)O)O2)c(=O)[nH]c1=O [AZTTP] | increasingly expressed according to a concentration | –
Cc1cc(C#N)cc(C)c1Oc1nc(Nc2ccc(C#N)cc2)nc(N)c1Br [Etravirine] | increasingly expressed according to a concentration | –
